Key:
[1] = test system: greenhouse red spider mite (Tetranychus urticae), OP-resistant; assay: Tetranychus urticae drench test, OP-resistant (TETRUR DRENCH); format: in vivo; conditions: bean plants (Phaseolus vulgaris) in soil pots, 100% = all spider mites killed; for pest or weed control at 0.16 ppm / pest or weed control at 0.8 ppm / pest or weed control at 4 ppm: Tetranychus urticae, in Phaseolus vulgaris, soil, 336 h, 14 d, read-out: % effect after 14 d
Procedure: Tetranychus urticae—Drench Test, OP-Resistant (TETRUR)
(§1) Solvent: 7 parts by weight of dimethylformamide
Emulsifier: 2 parts by weight of alkylaryl polyglycol ether
To produce a suitable active compound preparation, 1 part by weight of active compound was mixed with the specified amounts of solvent and emulsifier, and the concentrate was diluted with water to the desired concentration, with the volume of soil which was drenched being taken into account. It was ensured that a concentration of 40 ppm of emulsifier in the soil was not exceeded. To produce further test concentrations, water was used for dilution.
Bean plants (Phaseolus vulgaris), in soil pots, which were heavily infested by all stages of the greenhouse red spider mite (Tetranychus urticae) were watered with an active compound preparation of the desired concentration.
(§2) After the desired period of time, the efficacy in % was determined. 100% means that all the spider mites have been killed; 0% means that no spider mites have been killed.

[2] = test system: greenhouse red spider mite (Tetranychus urticae), OP-resistant; assay: Tetranychus urticae spray test, OP-resistant (TETRUR SPRAY); format: in vivo; conditions: bean plants (Phaseolus vulgaris), 100% = all spider mites killed; for pest or weed control at 0.16 ppm / pest or weed control at 0.8 ppm / pest or weed control at 4 ppm: Tetranychus urticae, 336 h, 14 d, read-out: % effect after 14 d
Procedure: Tetranychus urticae—Spray Test; OP-Resistant (TETRUR)
as §1
Emulsifier: alkylaryl polyglycol ether
To produce a suitable active compound preparation, 1 part by weight of active compound was dissolved using the stated parts by weight of solvent and made up with water containing an emulsifier concentration of 1000 ppm until the desired concentration was attained. To produce further test concentrations, the preparation was diluted with emulsifier-containing water. Ammonium salts and penetrants (rapeseed oil methyl ester) were each added in a concentration of 1000 ppm to the solution of the preparations.
Bean plants (Phaseolus vulgaris) which were heavily infested by all stages of the greenhouse red spider mite (Tetranychus urticae) were sprayed with an active compound preparation of the desired concentration.
as §2

## CN/C(=N/c1cc([S+]([O-])CC(F)(F)F)c(Cl)cc1Cl)C(F)(F)F (centres unmarked) [Ib-21]
[1]; 0.16 ppm
  pest or weed control at 0.16 ppm: 80%
[1]
  pest or weed control at 0.8 ppm: 95%
[2]; 0.16 ppm
  pest or weed control at 0.16 ppm: 0%
[2]
  pest or weed control at 0.8 ppm: 90%

## N/C(=N/c1cc([S+]([O-])CC(F)(F)F)c(Cl)cc1Cl)C(F)(F)F (centres unmarked) [Ib-17]
[1]; 0.16 ppm
  pest or weed control at 0.16 ppm: 98%
[1]
  pest or weed control at 0.8 ppm: 100%
[2]; 0.16 ppm
  pest or weed control at 0.16 ppm: 0%
[2]
  pest or weed control at 0.8 ppm: 98%

## N/C(=N/c1cc([S+]([O-])CC(F)(F)F)c(Br)cc1Cl)C(F)(F)F (centres unmarked) [Ib-68]
[1]; 0.16 ppm
  pest or weed control at 0.16 ppm: 98%
[1]
  pest or weed control at 0.8 ppm: 100%
[2]; 0.16 ppm
  pest or weed control at 0.16 ppm: 0%
[2]
  pest or weed control at 0.8 ppm: 80%

## Cc1cc(F)c(/N=C2\CCCN2CC(F)F)cc1[S+]([O-])CC(F)(F)F (centres unmarked) [Ib-33]
[1]; 0.16 ppm
  pest or weed control at 0.16 ppm: 60%
[1]
  pest or weed control at 0.8 ppm: 95%
[2]; 0.16 ppm
  pest or weed control at 0.16 ppm: 0%
[2]
  pest or weed control at 0.8 ppm: 0%

## N/C(=N/c1ccc(C(F)(F)F)c([S+]([O-])CC(F)(F)F)c1)C(F)(F)F (centres unmarked) [Ib-16]
[1]; 0.16 ppm
  pest or weed control at 0.16 ppm: 99%
[1]
  pest or weed control at 0.8 ppm: 100%
[2]; 0.16 ppm
  pest or weed control at 0.16 ppm: 0%
[2]
  pest or weed control at 0.8 ppm: 40%

## N/C(=N/c1cc([S+]([O-])CC(F)(F)F)c(Br)cc1Br)C(F)(F)F (centres unmarked) [Ib-18]
[1]; 0.16 ppm
  pest or weed control at 0.16 ppm: 99%
[1]
  pest or weed control at 0.8 ppm: 99%
[2]; 0.16 ppm
  pest or weed control at 0.16 ppm: 0%
[2]
  pest or weed control at 0.8 ppm: 50%

## CN(C)/C(=N/c1cc([S+]([O-])CC(F)(F)F)c(Br)cc1Br)C(F)(F)F (centres unmarked) [Ib-25]
[1]
  pest or weed control at 0.8 ppm: 99%
[2]
  pest or weed control at 0.8 ppm: 50%

## Cc1cc(F)c(/N=C(\N)c2cnccn2)cc1[S+]([O-])CC(F)(F)F (centres unmarked) [Ib-62]
[1]
  pest or weed control at 0.8 ppm: 90%
  pest or weed control at 4 ppm: 90%
[2]
  pest or weed control at 0.8 ppm: 0%
  pest or weed control at 4 ppm: 0%

## CN(C)/C(=N/c1cc([S+]([O-])CC(F)(F)F)c(Cl)cc1Cl)C(F)(F)F (centres unmarked) [Ib-26]
[1]
  pest or weed control at 0.8 ppm: 95%
[2]
  pest or weed control at 0.8 ppm: 0%

## Cc1cc(F)c(/N=C2\SCC(=O)N2CC(F)(F)F)cc1[S@+]([O-])CC(F)(F)F [Ib-168]
[1]; 0.16 ppm
  pest or weed control at 0.16 ppm: 50%
[1]
  pest or weed control at 0.8 ppm: 95%
[2]; 0.16 ppm
  pest or weed control at 0.16 ppm: 0%
[2]
  pest or weed control at 0.8 ppm: 30%

## Cc1cc(F)c(/N=C(\N)C2(Cl)CC2)cc1[S+]([O-])CC(F)(F)F (centres unmarked) [Ib-22]
[1]
  pest or weed control at 0.8 ppm: 90%
  pest or weed control at 4 ppm: 90%
[2]
  pest or weed control at 0.8 ppm: 0%
  pest or weed control at 4 ppm: 30%

## Cc1cc(F)c(/N=C(\N)C2(F)CC2)cc1[S+]([O-])CC(F)(F)F (centres unmarked) [Ib-19]
[1]; 0.16 ppm
  pest or weed control at 0.16 ppm: 98%
[1]
  pest or weed control at 0.8 ppm: 98%
[2]; 0.16 ppm
  pest or weed control at 0.16 ppm: 0%
[2]
  pest or weed control at 0.8 ppm: 30%

## Cc1cc(F)c(/N=C(\N)C(F)(F)F)cc1[S+]([O-])CC(F)(F)F (centres unmarked) [Ib-11]
[1]
  pest or weed control at 0.8 ppm: 100%
  pest or weed control at 4 ppm: 100%
[2]
  pest or weed control at 0.8 ppm: 50%
  pest or weed control at 4 ppm: 95%

## CN/C(=N/c1cc([S+]([O-])CC(F)(F)F)c(Br)cc1Br)C(F)(F)F (centres unmarked) [Ib-24]
[1]
  pest or weed control at 0.8 ppm: 100%
[2]
  pest or weed control at 0.8 ppm: 30%

## N/C(=N/c1cc([S+]([O-])CC(F)(F)F)c(Cl)cc1Br)C(F)(F)F (centres unmarked) [Ib-57]
[1]; 0.16 ppm
  pest or weed control at 0.16 ppm: 90%
[2]; 0.16 ppm
  pest or weed control at 0.16 ppm: 0%

## N/C(=N/c1cc([S+]([O-])CC(F)(F)F)c(Cl)cc1Cl)C(F)(F)F (centres unmarked) [Ib-14]
[1]; 0.16 ppm
  % effect after 14 d: 80%
[2]; 0.16 ppm
  % effect after 14 d: 0%

## Cc1cc(F)c(/N=C2\CCCN2CC(F)(F)F)cc1[S+]([O-])CC(F)(F)F (centres unmarked) [Ib-115]
[1]
  pest or weed control at 0.8 ppm: 90%
  pest or weed control at 4 ppm: 90%
[2]
  pest or weed control at 0.8 ppm: 0%
  pest or weed control at 4 ppm: 0%

## Cc1cc(F)c(/N=C(\N(C)C)C(F)(F)F)cc1[S+]([O-])CC(F)(F)F (centres unmarked) [Ib-01]
[1]
  pest or weed control at 0.8 ppm: 100%
  pest or weed control at 4 ppm: 100%
[2]
  pest or weed control at 0.8 ppm: 0%
  pest or weed control at 4 ppm: 98%
